Data reported in ChEMBL document CHEMBL1201862, “PubChem BioAssay data set” (2004).
Where “and” joins values, the source holds several entries; their conditions need not be identical. Identical values can stand only once.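 Values below derive from 48-hour exposures of cells grown in 96-well plates, with endpoints linearly interpolated between the two concentrations bracketing the appropriate inhibition level. GI50 is the concentration that inhibits growth by half.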 Calls of active or inactive are those of the source. No stated cut-off is given here; in the data, active = GI50 up to about 1.1 µM and inactive = higher.

Tests used:
Assay in all cases: NCI anticancer screen, dose series, 48 h
IGROV-1 = system: IGROV-1
UACC-62 = system: UACC-62
DU-145 = system: DU-145
SF-268 = system: SF-268
SF-539 = system: SF-539
NCI/ADR-RES = system: NCI/ADR-RES
ACHN = system: ACHN
MDA-N = system: MDA-N
T47D = system: T47D
NCI-H23 = system: NCI-H23
SK-OV-3 = system: SK-OV-3
BT-549 = system: BT-549
HCT-15 = system: HCT-15
SW-620 = system: SW-620
SN12C = system: SN12C
NCI-H226 = system: NCI-H226
Hs-578T = system: Hs-578T
SF-295 = system: SF-295
UACC-257 = system: UACC-257
UO-31 = system: UO-31
SK-MEL-28 = system: SK-MEL-28
SK-MEL-2 = system: SK-MEL-2
HL-60 = system: HL-60
OVCAR-5 = system: OVCAR-5
OVCAR-4 = system: OVCAR-4
A498 = system: A498
NCI-H460 = system: NCI-H460
SK-MEL-5 = system: SK-MEL-5
CAKI-1 = system: CAKI-1
MDA-MB-435 = system: MDA-MB-435
EKVX = system: EKVX
M14 = system: M14
TK-10 = system: TK-10
MCF7 = system: MCF7
OVCAR-8 = system: OVCAR-8
SNB-19 = system: SNB-19
HOP-92 = system: HOP-92
HOP-62 = system: HOP-62
A549 = system: A549
COLO 205 = system: COLO 205
SNB-75 = system: SNB-75
KM12 = system: KM12
HT-29 = system: HT-29
RPMI-8226 = system: RPMI-8226
NCI-H522 = system: NCI-H522
U-251 = system: U-251
MOLT-4 = system: MOLT-4
786-0 = system: 786-0
PC-3 = system: PC-3
K562 = system: K562
MDA-MB-231 = system: MDA-MB-231
LOX IMVI = system: LOX IMVI
CCRF-CEM = system: CCRF-CEM
HCC 2998 = system: HCC 2998
RXF 393 = system: RXF 393
OVCAR-3 = system: OVCAR-3

COc1ccc(/C=C/C(=O)OC2CC34CCNC35CC(OC5(OC)C2OC)c2ccc(OC)c(O)c24)cc1O (stereo not given) was tested, and the GI50 (IGROV-1) was > 100 µM (inactive) and 86.3 µM (inactive), the GI50 (UACC-62) was > 100 µM (inactive) and the GI50 (DU-145) was > 100 µM (inactive). For the same compound, the GI50 (SF-268) was > 100 µM (inactive), the GI50 (SF-539) was > 100 µM (inactive) and 87.1 µM (inactive) and the GI50 (NCI/ADR-RES) was 63 µM (inactive). The GI50 (ACHN) was > 100 µM (inactive) and 80.7 µM (inactive), the GI50 (MDA-N) was > 100 µM (inactive) and the GI50 (T47D) was > 100 µM (inactive). The GI50 (NCI-H23) was > 100 µM (inactive) and 88.1 µM (inactive), the GI50 (SK-OV-3) was > 100 µM (inactive) and the GI50 (BT-549) was > 100 µM (inactive). The GI50 (HCT-15) was 58.5 µM, the GI50 (SW-620) was 58.1 µM (inactive) and the GI50 (SN12C) was 55.1 µM (inactive). For the same compound, the GI50 (NCI-H226) was > 100 µM (inactive), the GI50 (Hs-578T) was > 100 µM (inactive) and 52.2 µM (inactive) and the GI50 (SF-295) was > 100 µM (inactive) and 62.4 µM (inactive). For the same compound, the GI50 (UACC-257) was > 100 µM (inactive), the GI50 (UO-31) was > 100 µM (inactive) and the GI50 (SK-MEL-28) was 79.4 µM (inactive). The GI50 (SK-MEL-2) was > 100 µM (inactive), the GI50 (HL-60) was 24.1 µM (inactive) and the GI50 (OVCAR-5) was > 100 µM (inactive). The GI50 (OVCAR-4) was > 100 µM (inactive) and 50.6 µM (inactive), the GI50 (A498) was > 100 µM (inactive) and the GI50 (NCI-H460) was > 100 µM (inactive) and 57.7 µM (inactive). The GI50 (SK-MEL-5) was 57.3 µM (inactive), the GI50 (CAKI-1) was > 100 µM (inactive) and the GI50 (MDA-MB-435) was > 100 µM (inactive). For the same compound, the GI50 (EKVX) was > 100 µM (inactive), the GI50 (M14) was > 100 µM (inactive) and 88.7 µM (inactive) and the GI50 (TK-10) was > 100 µM (inactive). The GI50 (MCF7) was > 100 µM (inactive) and 70 µM (inactive), the GI50 (OVCAR-8) was > 100 µM (inactive) and the GI50 (SNB-19) was > 100 µM (inactive). The GI50 (HOP-92) was 76 µM (inactive), the GI50 (HOP-62) was > 100 µM (inactive) and 61.4 µM (inactive) and the GI50 (A549) was > 100 µM (inactive).

CN(C)C(=O)OC(Cn1cncn1)(Cn1cncn1)c1ccc(Cl)cc1Cl was tested, and the GI50 (IGROV-1) was > 100 µM (inactive), the GI50 (DU-145) was > 100 µM (inactive) and the GI50 (SF-268) was > 100 µM (inactive). The GI50 (SF-539) was > 100 µM (inactive), the GI50 (COLO 205) was > 100 µM (inactive) and the GI50 (NCI/ADR-RES) was > 100 µM (inactive). The GI50 (T47D) was > 100 µM (inactive), the GI50 (SK-OV-3) was > 100 µM (inactive) and the GI50 (BT-549) was > 100 µM (inactive). For the same compound, the GI50 (SNB-75) was > 100 µM (inactive), the GI50 (HCT-15) was over 100 µM and the GI50 (KM12) was > 100 µM (inactive). The GI50 (HT-29) was > 100 µM (inactive), the GI50 (RPMI-8226) was > 100 µM (inactive) and the GI50 (NCI-H522) was > 100 µM (inactive). For the same compound, the GI50 (SW-620) was > 100 µM (inactive), the GI50 (NCI-H226) was > 100 µM (inactive) and the GI50 (U-251) was > 100 µM (inactive). The GI50 (MOLT-4) was > 100 µM (inactive), the GI50 (Hs-578T) was > 100 µM (inactive) and the GI50 (SF-295) was > 100 µM (inactive). For the same compound, the GI50 (UACC-257) was > 100 µM (inactive), the GI50 (UO-31) was > 100 µM (inactive) and the GI50 (SK-MEL-28) was > 100 µM (inactive). For the same compound, the GI50 (SK-MEL-2) was 71.8 µM (inactive), the GI50 (HL-60) was > 100 µM (inactive) and the GI50 (OVCAR-5) was > 100 µM (inactive). The GI50 (786-0) was > 100 µM (inactive), the GI50 (PC-3) was > 100 µM (inactive) and the GI50 (K562) was > 100 µM (inactive). For the same compound, the GI50 (OVCAR-4) was > 100 µM (inactive), the GI50 (A498) was > 100 µM (inactive) and the GI50 (NCI-H460) was > 100 µM (inactive). The GI50 (MDA-MB-231) was > 100 µM (inactive), the GI50 (SK-MEL-5) was > 100 µM (inactive) and the GI50 (LOX IMVI) was > 100 µM (inactive). For the same compound, the GI50 (CAKI-1) was > 100 µM (inactive), the GI50 (MDA-MB-435) was > 100 µM (inactive) and the GI50 (EKVX) was > 100 µM (inactive). For the same compound, the GI50 (CCRF-CEM) was > 100 µM (inactive), the GI50 (M14) was > 100 µM (inactive) and the GI50 (TK-10) was > 100 µM (inactive). For the same compound, the GI50 (MCF7) was > 100 µM (inactive), the GI50 (HCC 2998) was > 100 µM (inactive) and the GI50 (OVCAR-8) was > 100 µM (inactive). The GI50 (SNB-19) was > 100 µM (inactive), the GI50 (RXF 393) was > 100 µM (inactive) and the GI50 (HOP-92) was > 100 µM (inactive). The GI50 (OVCAR-3) was > 100 µM (inactive), the GI50 (HOP-62) was > 100 µM (inactive) and the GI50 (A549) was > 100 µM (inactive).
